Assay results: ChEMBL document CHEMBL4138123, “Design, synthesis and biological evaluation of novel pyrazolochalcones as potential modulators of PI3K/Akt/mTOR pathway and inducers of apoptosis in breast cancer cells” (Eur J Med Chem, 2017)

Key:
U-251 = assay: Cytotoxicity against human U251 cells assessed as growth inhibition after 48 hrs by sulforhodamine B assay; assay type: functional; settings: U-251, 48 h
CCRF-CEM [1] = assay: Cytotoxicity against human CCRF-CEM cells assessed as cell growth at 10 uM after 48 hrs by sulforhodamine B assay relative to control; assay type: functional; settings: read-out: Activity
A498 [2] = assay: Cytotoxicity against human A498 cells assessed as growth inhibition after 48 hrs by sulforhodamine B assay; assay type: functional; settings: A498, 48 h
SNB-19 = assay: Cytotoxicity against human SNB19 cells assessed as growth inhibition after 48 hrs by sulforhodamine B assay; assay type: functional; settings: SNB-19, 48 h; for CC50: read-out: LC50 (the source's name)
NCI-H23 [3] = assay: Cytotoxicity against human NCI-H23 cells assessed as cell growth at 0.01 uM after 48 hrs by sulforhodamine B assay relative to control; assay type: functional; settings: NCI-H23, 48 h, read-out: Activity
KM12 [4] = assay: Cytotoxicity against human KM12 cells assessed as cell growth at 0.1 uM after 48 hrs by sulforhodamine B assay relative to control; assay type: functional; settings: KM12, 48 h, read-out: Activity
SF-268 [5] = assay: Cytotoxicity against human SF268 cells assessed as cell growth at 10 uM after 48 hrs by sulforhodamine B assay relative to control; assay type: functional; settings: SF-268, 48 h, read-out: Activity
SR [6] = assay: Cytotoxicity against human SR cells assessed as cell growth at 10 uM after 48 hrs by sulforhodamine B assay relative to control; assay type: functional; settings: read-out: Activity
NCI-H460 = assay: Cytotoxicity against human NCI-H460 cells assessed as cell growth at 0.01 uM after 48 hrs by sulforhodamine B assay relative to control; assay type: functional; settings: NCI-H460, 48 h, read-out: Activity
K562 = assay: Cytotoxicity against human K562 cells assessed as cell growth at 1 uM after 48 hrs by sulforhodamine B assay relative to control; assay type: functional; settings: K562, 48 h, read-out: Activity
KM12 [7] = assay: Cytotoxicity against human KM12 cells assessed as cell growth at 0.01 uM after 48 hrs by sulforhodamine B assay relative to control; assay type: functional; settings: KM12, 48 h, read-out: Activity
SR [8] = assay: Cytotoxicity against human SR cells assessed as cell growth at 0.01 uM after 48 hrs by sulforhodamine B assay relative to control; assay type: functional; settings: read-out: Activity
MDA-MB-435 = assay: Cytotoxicity against human MDA-MB-435 cells assessed as cell growth at 0.1 uM after 48 hrs by sulforhodamine B assay relative to control; assay type: functional; settings: MDA-MB-435, 48 h, read-out: Activity
MCF7 = assay: Cytotoxicity against human MCF7 cells assessed as growth inhibition after 48 hrs by MTT assay; assay type: functional, cell-based; settings: MCF7, 48 h
UACC-62 [9] = assay: Cytotoxicity against human UACC62 cells assessed as cell growth at 1 uM after 48 hrs by sulforhodamine B assay relative to control; assay type: functional; settings: UACC-62, 48 h, read-out: Activity
NCI-H522 = assay: Cytotoxicity against human NCI-H522 cells assessed as cell growth at 0.01 uM after 48 hrs by sulforhodamine B assay relative to control; assay type: functional; settings: NCI-H522, 48 h, read-out: Activity
MDA-MB-231 [10] = assay: Cytotoxicity against human MDA-MB-231 cells assessed as cell growth at 0.1 uM after 48 hrs by sulforhodamine B assay relative to control; assay type: functional; settings: MDA-MB-231, 48 h, read-out: Activity
HOP-62 [11] = assay: Cytotoxicity against human HOP62 cells assessed as cell growth at 0.01 uM after 48 hrs by sulforhodamine B assay relative to control; assay type: functional; settings: HOP-62, 48 h, read-out: Activity
Hs-578T = assay: Cytotoxicity against human Hs 578T cells assessed as cell growth at 0.01 uM after 48 hrs by sulforhodamine B assay relative to control; assay type: functional; settings: read-out: Activity
DU-145 = assay: Cytotoxicity against human DU145 cells assessed as cell growth at 1 uM after 48 hrs by sulforhodamine B assay relative to control; assay type: functional; settings: DU-145, 48 h, read-out: Activity
TK-10 = assay: Cytotoxicity against human TK10 cells assessed as cell growth at 0.01 uM after 48 hrs by sulforhodamine B assay relative to control; assay type: functional; settings: TK-10, 48 h, read-out: Activity
Malme-3M = assay: Cytotoxicity against human MALME-3M cells assessed as cell growth at 0.1 uM after 48 hrs by sulforhodamine B assay relative to control; assay type: functional; settings: read-out: Activity
UO-31 = assay: Cytotoxicity against human UO31 cells assessed as growth inhibition after 48 hrs by sulforhodamine B assay; assay type: functional; settings: UO-31, 48 h
NCI-H23 [12] = assay: Cytotoxicity against human NCI-H23 cells assessed as cell growth at 0.1 uM after 48 hrs by sulforhodamine B assay relative to control; assay type: functional; settings: NCI-H23, 48 h, read-out: Activity
UACC-62 [13] = assay: Cytotoxicity against human UACC62 cells assessed as cell growth at 0.1 uM after 48 hrs by sulforhodamine B assay relative to control; assay type: functional; settings: UACC-62, 48 h, read-out: Activity
A549 [14] = assay: Cytotoxicity against human A549/ATCC cells assessed as cell growth at 1 uM after 48 hrs by sulforhodamine B assay relative to control; assay type: functional; settings: A549, 48 h, read-out: Activity
PC-3 = assay: Cytotoxicity against human PC3 cells assessed as cell growth at 1 uM after 48 hrs by sulforhodamine B assay relative to control; assay type: functional; settings: PC-3, 48 h, read-out: Activity
CCRF-CEM [15] = assay: Cytotoxicity against human CCRF-CEM cells assessed as cell growth at 0.1 uM after 48 hrs by sulforhodamine B assay relative to control; assay type: functional; settings: read-out: Activity
KM12 [16] = assay: Cytotoxicity against human KM12 cells assessed as cell growth at 100 uM after 48 hrs by sulforhodamine B assay relative to control; assay type: functional; settings: KM12, 48 h, read-out: Activity
MDA-MB-231 [17] = assay: Cytotoxicity against human MDA-MB-231 cells assessed as cell growth at 10 uM after 48 hrs by sulforhodamine B assay relative to control; assay type: functional; settings: MDA-MB-231, 48 h, read-out: Activity
HOP-62 [18] = assay: Cytotoxicity against human HOP62 cells assessed as cell growth at 100 uM after 48 hrs by sulforhodamine B assay relative to control; assay type: functional; settings: HOP-62, 48 h, read-out: Activity
A498 [19] = assay: Cytotoxicity against human A498 cells assessed as cell growth at 100 uM after 48 hrs by sulforhodamine B assay relative to control; assay type: functional; settings: A498, 48 h, read-out: Activity
NCI-H226 = assay: Cytotoxicity against human NCI-H226 cells assessed as cell growth at 0.01 uM after 48 hrs by sulforhodamine B assay relative to control; assay type: functional; settings: NCI-H226, 48 h, read-out: Activity
SF-268 [20] = assay: Cytotoxicity against human SF268 cells assessed as cell growth at 0.1 uM after 48 hrs by sulforhodamine B assay relative to control; assay type: functional; settings: SF-268, 48 h, read-out: Activity
A549 [21] = assay: Cytotoxicity against human A549/ATCC cells assessed as cell growth at 0.01 uM after 48 hrs by sulforhodamine B assay relative to control; assay type: functional; settings: A549, 48 h, read-out: Activity
NCI/ADR-RES [22] = assay: Cytotoxicity against human NCI/ADR-RES cells assessed as cell growth at 0.1 uM after 48 hrs by sulforhodamine B assay relative to control; assay type: functional; settings: read-out: Activity
NCI/ADR-RES [23] = assay: Cytotoxicity against human NCI/ADR-RES cells assessed as cell growth at 0.01 uM after 48 hrs by sulforhodamine B assay relative to control; assay type: functional; settings: read-out: Activity

COc1ccc(C(=O)/C=C/c2cc(-c3ccc4c(c3)OCO4)n[nH]2)cc1OC
LC50 (U-251): 23.8 µM | TGI (U-251): 5.37 µM | growth at 10 µM (CCRF-CEM [1]): -2% | LC50 (A498 [2]): 13.9 µM | TGI (A498 [2]): 4.23 µM | TGI (SNB-19): 15.2 µM | CC50 (SNB-19): 40.8 µM | growth at 0.01 µM (NCI-H23 [3]): 90% | growth at 0.1 µM (KM12 [4]): 99% | growth at 10 µM (SF-268 [5]): -12% | growth at 10 µM (SR [6]): -13% | growth at 0.01 µM (NCI-H460): 101% | growth at 1 µM (K562): 80% | growth at 0.01 µM (KM12 [7]): 99% | growth at 0.01 µM (SR [8]): 90% | growth at 0.1 µM (MDA-MB-435): 99% | IC50 (MCF7): 2.5 µM | growth at 1 µM (UACC-62 [9]): 98% | growth at 0.01 µM (NCI-H522): 85% | growth at 0.1 µM (MDA-MB-231 [10]): 96% | growth at 0.01 µM (HOP-62 [11]): 95% | growth at 0.01 µM (Hs-578T): 96% | growth at 1 µM (DU-145): 88% | growth at 0.01 µM (TK-10): 91% | growth at 0.1 µM (Malme-3M): 100% | GI50 (UO-31): 2.32 µM | LC50 (UO-31): 34.5 µM | TGI (UO-31): 10.1 µM | growth at 0.1 µM (NCI-H23 [12]): 89% | growth at 0.1 µM (UACC-62 [13]): 100% | growth at 1 µM (A549 [14]): 85% | growth at 1 µM (PC-3): 74% | growth at 0.1 µM (CCRF-CEM [15]): 99% | growth at 100 µM (KM12 [16]): -90% | growth at 10 µM (MDA-MB-231 [17]): -14% | growth at 100 µM (HOP-62 [18]): -80% | growth at 100 µM (A498 [19]): -93% | growth at 0.01 µM (NCI-H226): 90% | growth at 0.1 µM (SF-268 [20]): 94% | growth at 0.01 µM (A549 [21]): 96%

COc1ccc(-c2cc(/C=C/C(=O)c3ccc4c(c3)OCO4)[nH]n2)cc1OC
GI50 (U-251): 1.2 µM | GI50 (A498 [2]): 1.27 µM | GI50 (SNB-19): 1.67 µM | IC50 (MCF7): 1.5 µM | GI50 (UO-31): 1.5 µM

COc1ccc(C(=O)/C=C/c2cc(-c3ccc(OC)c(OC)c3)n[nH]2)cc1OC
GI50 (U-251): 1.2 µM | TGI (U-251): 2.63 µM | growth at 10 µM (CCRF-CEM [1]): -5% | growth at 0.1 µM (NCI/ADR-RES [22]): 102% | GI50 (A498 [2]): 1.27 µM | TGI (A498 [2]): 3.2 µM | GI50 (SNB-19): 1.67 µM | TGI (SNB-19): 4.16 µM | CC50 (SNB-19): > 100 µM | growth at 0.01 µM (NCI-H23 [3]): 101% | growth at 0.1 µM (KM12 [4]): 100% | growth at 10 µM (SF-268 [5]): -1% | growth at 0.01 µM (NCI-H460): 102% | growth at 1 µM (K562): 38% | growth at 0.01 µM (KM12 [7]): 102% | growth at 0.01 µM (SR [8]): 94% | growth at 0.1 µM (MDA-MB-435): 94% | IC50 (MCF7): 0.8 µM | growth at 1 µM (UACC-62 [9]): 89% | growth at 0.01 µM (NCI-H522): 91% | growth at 0.1 µM (MDA-MB-231 [10]): 99% | growth at 0.01 µM (HOP-62 [11]): 83% | growth at 0.01 µM (Hs-578T): 93% | growth at 1 µM (DU-145): 73% | growth at 0.01 µM (TK-10): 98% | growth at 0.1 µM (Malme-3M): 106% | GI50 (UO-31): 1.5 µM | TGI (UO-31): 3.8 µM | growth at 0.1 µM (NCI-H23 [12]): 103% | growth at 0.1 µM (UACC-62 [13]): 96% | growth at 1 µM (A549 [14]): 77% | growth at 1 µM (PC-3): 69% | growth at 0.1 µM (CCRF-CEM [15]): 94% | growth at 100 µM (KM12 [16]): -74% | growth at 10 µM (MDA-MB-231 [17]): -18% | growth at 100 µM (HOP-62 [18]): -13% | growth at 0.01 µM (NCI/ADR-RES [23]): 104% | growth at 100 µM (A498 [19]): -55% | growth at 0.01 µM (NCI-H226): 94% | growth at 0.1 µM (SF-268 [20]): 95% | growth at 0.01 µM (A549 [21]): 97%
